# In US11242321B2, “Salt forms of organic compound” (KAINOS MEDICINE INC., priority 2018, dated 2022):
# Legend:
# [1] = Aqueous solubility assessment of salt screen solids (visual); conditions: Ca. 5 mg in up to 4000 μL water (1.25 mg/ml), shaken overnight at 50° C.; for Solubility assessment (dissolution in deionized water), salt from DIPE: salt prepared from DIPE; for Solubility assessment (dissolution in deionized water), salt From Ethanol: salt prepared from ethanol
# Method: Aqueous solubility assessment was performed using Ca. […] These samples were added to aliquots of deionized water up to a maximum of 4000 μL with the samples being shaken between additions to encourage dissolution prior to a visual inspection.
# [2] = FaSSIF/FeSSIF solubility; format: physicochemical; conditions: thermodynamic from solid, shaken 24 h at 37° C.
# Method: Ca. 25 mg of each of the salts were weighed into a 2 mL HPLC vial prior to the addition of 1 mL of Fasting State Simulated Intenstinal Fluid (FaSSIS) solution. […] The experiment was also repeated using Fed State Simulated Intestinal Fluid (FeSSIF) solution.
# [3] = Aqueous solubility, 24 h shake, gravimetric; format: physicochemical; conditions: thermodynamic from solid, deionized water
# Method: Ca. 50 mg of each of the salts were weighed into a 2 mL HPLC vial prior to the addition of 1 mL of deionized water. […] The experiment was also repeated at 50° C.
# [4] = Dynamic vapor sorption (DVS); format: physicochemical; conditions: for XRPD post DVS: after double cycle 0-90% RH
# Method: SMS DVS Intrinsic dynamic vapour sorption instrument using DVS-Intrinsic control software v1.0.6.0. Analysis of the data was performed using the DVS analysis suite v7.0.13.1 macro program embedded in Microsoft Excel. Analysis was performed as a wt % change from 0-90% RH with isothermal plots also being examined.
# Ca. 10-15 mg of sample was weighed into a stainless steel DVS basket before submitting for analysis. The samples were analysed over the range of 0-90% RH with a maximum time of 6 hours per humidity stage. Each sample was exposed to a double cycle. XRPD analysis of all samples was performed post-DVS.
# [5] = pH1 stability; format: physicochemical; conditions: pH 1 buffer, 4 h at 37° C.; for Chemical purity post stability (pH 1 for 4 h): HPLC; for 1H NMR post stability (pH 1 for 4 h): cell continues: salt form is no longer present
# Method: Ca. 25 mg of each of the salts were weighed into a 2 mL HPLC vial prior to the addition of 1 mL of pH 1 buffer. The samples were then shaken for 4 h at 37° C. before being filtered into SPE cartridges and dried overnight.
# [6] = pH of saturated solution; format: physicochemical; conditions: saturated solution in deionized water, room temperature
# Method: A saturated solution of each of the salts was prepared in 5 mL of deionized water at room temperature prior to analysis.
# [7] = Stability at 40° C./75% RH; format: physicochemical; conditions: for Chemical purity post stability (40° C./75% RH): HPLC
# [8] = FaSSIF, read-out: FaSSIF solubility @ 37° C.
# [9] = FeSSIF, read-out: FeSSIF solubility @ 37° C.
# [10] = shaken 24 h at 25° C., read-out: Aqueous solubility @ 25° C.
Structure (SMILES),"Solubility assessment (dissolution in deionized water), salt from DIPE [1]","Solubility assessment (dissolution in deionized water), salt from MIBK ([1]; salt prepared from MIBK)","Solubility assessment (dissolution in deionized water), salt From Ethanol [1]","solubility at 24 h [2, 8] [µg/mL]","solubility at 24 h [2, 9] [µg/mL]","solubility at 24 h [3, 10] [µg/mL]",solubility at 24 h ([3]; shaken 24 h at 50° C.) [µg/mL],"DVS mass increase between 0-90% RH, first cycle [4]",XRPD post DVS [4],Observations post stability (pH 1 for 4 h) [5],XRPD post stability (pH 1 for 4 h) [5],Chemical purity post stability (pH 1 for 4 h) [5],1H NMR post stability (pH 1 for 4 h) [5],pH of rm temp sat'd sol'n [6],Observation post stability (40° C./75% RH) [7],XRPD post stability (40° C./75% RH) [7],Chemical purity post stability (40° C./75% RH) [7]
"O=C(CSc1ccc(Br)cc1)Nc1cn(CCc2ccccc2)nc1C(=O)[O-].[K+] [potassium salt, 4-(2-((4-bromophenyl)thio)acetamido)-1-phenethyl-1H-pyrazole-3-carboxylic acid potassium salt]",Complete,Partial,Complete,1500,1600,6600,16200,Ca. 5.7% mass increase between 0-90% RH on the first cycle,Partially crystalline-pattern is different from free acid indicating,No visual change,Partially crystalline: change in crystalline form compared to the,>99.9% (by peak area),"Reduction in chemical shifts, indicating that salt form is no",9.21,No visible change,Partially crystalline-no change in form,>99.9% (by peak area)
"O=C(CSc1ccc(Br)cc1)Nc1cn(CCc2ccccc2)nc1C(=O)[O-].[Na+] [sodium salt, 4-(2-((4-bromophenyl)thio)acetamido)-1-phenethyl-1H-pyrazole-3-carboxylic Acid Sodium Salt]",Complete,,Complete,4000,3800,2300,2400,Ca. 11.7% mass increase between 0-90% RH on,Crystalline - no change in form,No visual change,Partially crystalline: change in crystalline,>99.9% (by peak area),"No chemical shifts, indicating that salt form",10.31,No visible change,Crystalline - no change in form,>99.9% (by peak area)
